# Laboratory results reported in ChEMBL document CHEMBL1126033, “C-terminal modifications of nonpeptide renin inhibitors: improved oral bioavailability via modification of physicochemical properties” (J Med Chem, 1992).
# pIC50: −log10 of the molar value.
# Columns and labels:
# Renin [1] = molecular target: T1, Renin (Homo sapiens, UniProt P00797); test: In vitro activity against human renin (pH 6.0)
# T1 sequence (P00797 whole entry): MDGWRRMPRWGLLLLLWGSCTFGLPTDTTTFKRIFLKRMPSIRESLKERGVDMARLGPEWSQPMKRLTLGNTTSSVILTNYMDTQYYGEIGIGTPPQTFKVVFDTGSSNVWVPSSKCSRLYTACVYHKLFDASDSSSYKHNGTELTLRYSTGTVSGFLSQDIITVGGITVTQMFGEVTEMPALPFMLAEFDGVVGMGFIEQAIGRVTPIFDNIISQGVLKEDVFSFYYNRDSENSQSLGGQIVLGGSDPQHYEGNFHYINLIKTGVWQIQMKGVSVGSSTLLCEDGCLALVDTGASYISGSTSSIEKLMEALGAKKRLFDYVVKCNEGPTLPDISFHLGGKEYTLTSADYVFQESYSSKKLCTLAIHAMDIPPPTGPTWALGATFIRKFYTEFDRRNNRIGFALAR
# Renin [2] = molecular target: T1, Renin; type: cell-free, Plasma
# [3] = Partition coefficient (logD7.4); details: octanol/water, pH 7.4
# [4] = Partition coefficient (logD6.5); details: octanol/water, pH 6.5
# Mustela putorius furo [5] = test: Average area under curve value dosed at 10 mg/kg, id in ferrets.; details: ferret, in vivo, other
# Mustela putorius furo [6] = test: Average area under curve value dosed at 0.3 mg/kg, iv in ferrets.; details: ferret, in vivo
# [7] = Average peak plasma drug concentration after iv dose of 0.3 mg/kg in ferrets.; details: ferret
# [8] = Average peak plasma drug concentration after id dose of 10 mg/kg in ferrets(Plasma samples collected from arterial blood).; details: ferret
# [9] = Average peak plasma drug concentration after id dose of 10 mg/kg in ferrets(Plasma samples collected from portal blood).; details: ferret
# [10] = Bioavailability in ferret; details: in vivo
SMILES,pIC50 (Renin [1]),pIC50 (Renin [2]),logD [3],logD [4],other results
CC(C)[C@H](C[C@H](O)[C@H](CC1CCCCC1)NC(=O)[C@H](Cc1c[nH]cn1)NC(=O)[C@H](Cc1ccccc1)NC(=O)OC(C)(C)C)NC(=O)OCCc1ccccn1,8.89,7.77,,,
CCCC[C@H](O[C@@H](Cc1ccccc1)C(=O)N1CCC(OCOC)CC1)C(=O)N[C@@H](CC1CCCCC1)[C@@H](O)C[C@H](NC(=O)OCCC)C(C)C,8.82,7.85,,,
CCCC[C@H](O[C@@H](Cc1ccccc1)C(=O)N1CCC(OCOC)CC1)C(=O)N[C@@H](CC1CCCCC1)[C@@H](O)C[C@H](C(=O)N(C)CCN(C)C)C(C)C,7.52,6.54,> 5,3.3,
CCCC[C@H](O[C@@H](Cc1ccccc1)C(=O)N1CCC(OCOC)CC1)C(=O)N[C@@H](CC1CCCCC1)[C@@H](O)C[C@H](NC(=O)OCCC(C)C)C(C)C,8.30,7.25,,,
CCCC[C@H](O[C@@H](Cc1ccccc1)C(=O)N1CCC(OCOC)CC1)C(=O)N[C@@H](CC1CCCCC1)[C@@H](O)C[C@H](NC(=O)OCCN(C)C)C(C)C,,8.08,> 4,3.6,Average AUC (Mustela putorius furo [5]): 2780 ng·h/mL; Average AUC (Mustela putorius furo [6]): 232 ng·h/mL; Cmax ([7]; plasma): 1010 ng/mL; Cmax ([8]; plasma (from arterial blood)): 1190 ng/mL; Cmax ([9]; plasma (from portal blood)): 1540 ng/mL; bioavailability [10]: 36%
CCCC[C@H](O[C@@H](Cc1ccccc1)C(=O)N1CCC(OCOC)CC1)C(=O)N[C@@H](CC1CCCCC1)[C@@H](O)C[C@H](C(=O)N(C)CCCN(C)C)C(C)C,7.24,6.57,3.7,2.5,
CCCC[C@H](N[C@@H](Cc1ccccc1)C(=O)N1CCC(OCOC)CC1)C(=O)N[C@@H](CC1CCCCC1)[C@@H](O)C[C@H](C(=O)NCCCn1ccnc1)C(C)C,8.70,8.12,,,
CCCC[C@H](O[C@@H](Cc1ccccc1)C(=O)N1CCC(OCOC)CC1)C(=O)N[C@@H](CC1CCCCC1)[C@@H](O)C[C@H](NS(C)(=O)=O)C(C)C,8.37,7.21,,,
CCCC[C@H](N[C@@H](Cc1ccccc1)C(=O)N1CCC(OCOC)CC1)C(=O)N[C@@H](CC1CCCCC1)[C@@H](O)C[C@H](NC(=O)OCCN(C)C)C(C)C,8.82,7.92,4.6,3.8,Average AUC (Mustela putorius furo [5]): 5050 ng·h/mL; Average AUC (Mustela putorius furo [6]): 245 ng·h/mL; Cmax ([7]; plasma): 930 ng/mL; Cmax ([8]; plasma (from arterial blood)): 2070 ng/mL; Cmax ([9]; plasma (from portal blood)): 5250 ng/mL; bioavailability [10]: 62%
CCCC[C@H](O[C@@H](Cc1ccccc1)C(=O)N1CCC(OCOC)CC1)C(=O)N[C@@H](CC1CCCCC1)[C@@H](O)C[C@H](C(=O)NCCCN(C)C)C(C)C,,8.23,3.1,2.3,Average AUC (Mustela putorius furo [5]): 9670 ng·h/mL; Average AUC (Mustela putorius furo [6]): 573 ng·h/mL; Cmax ([7]; plasma): 2990 ng/mL; Cmax ([8]; plasma (from arterial blood)): 5050 ng/mL; Cmax ([9]; plasma (from portal blood)): 4990 ng/mL; bioavailability [10]: 50%
CC(C)[C@H](C[C@H](O)[C@H](CC1CCCCC1)NC(=O)[C@H](Cc1c[nH]cn1)NC(=O)[C@H](Cc1ccccc1)NC(=O)OC(C)(C)C)NS(C)(=O)=O,7.55,,,,
CCCNC(=O)N[C@@H](C[C@H](O)[C@H](CC1CCCCC1)NC(=O)[C@H](Cc1c[nH]cn1)NC(=O)[C@H](Cc1ccccc1)NC(=O)OC(C)(C)C)C(C)C,8.57,7.08,,,
CCCC[C@H](O[C@@H](Cc1ccccc1)C(=O)N1CCC(OCOC)CC1)C(=O)N[C@@H](CC1CCCCC1)[C@@H](O)C[C@H](NC(=O)OCCCN(C)C)C(C)C,8.62,7.92,3.8,2.9,
CCCC[C@H](O[C@@H](Cc1ccccc1)C(=O)N1CCC(OCOC)CC1)C(=O)N[C@@H](CC1CCCCC1)[C@@H](O)C[C@H](C(=O)NCCc1ccccn1)C(C)C,9.00,8.29,> 5,> 5,
CC(C)[C@H](C[C@H](O)[C@H](CC1CCCCC1)NC(=O)[C@H](Cc1cnc[nH]1)NC(=O)[C@H](Cc1ccccc1)NC(=O)OC(C)(C)C)NC(=O)OCCCN(C)C,8.55,7.77,,,
CC(C)[C@H](C[C@H](O)[C@H](CC1CCCCC1)NC(=O)[C@H](Cc1c[nH]cn1)NC(=O)[C@H](Cc1ccccc1)NC(=O)OC(C)(C)C)NC(=O)OCCN1CCCC1,8.57,7.55,,,
CCCCC(=O)N[C@@H](C[C@H](O)[C@H](CC1CCCCC1)NC(=O)[C@H](Cc1c[nH]cn1)NC(=O)[C@H](Cc1ccccc1)NC(=O)OC(C)(C)C)C(C)C,8.22,6.70,,,
CCCC[C@H](O[C@@H](Cc1ccccc1)C(=O)N1CCC(OCOC)CC1)C(=O)N[C@@H](CC1CCCCC1)[C@@H](O)C[C@H](NC(=O)OCCc1ccccn1)C(C)C,9.05,7.40,3.4,2.7,

SMILES,pIC50 (Renin [1]),pIC50 (Renin [2]),logD [3],logD [4],other results
CCCOC(=O)N[C@@H](C[C@H](O)[C@H](CC1CCCCC1)NC(=O)[C@H](Cc1cnc[nH]1)NC(=O)[C@H](Cc1ccccc1)NC(=O)OC(C)(C)C)C(C)C,8.77,7.80,,,
CCCC[C@H](O[C@@H](Cc1ccccc1)C(=O)N1CCC(OCOC)CC1)C(=O)N[C@@H](CC1CCCCC1)[C@@H](O)C[C@H](C(=O)NCCC[N+]1([O-])CCOCC1)C(C)C,8.89,8.46,,,
CCCCNC(=O)[C@@H](C[C@H](O)[C@H](CC1CCCCC1)NC(=O)[C@H](CCCC)N[C@@H](Cc1ccccc1)C(=O)N1CCC(OCOC)CC1)C(C)C,8.74,,> 4.5,> 4.5,Average AUC (Mustela putorius furo [5]): 3530 ng·h/mL; Average AUC (Mustela putorius furo [6]): 673 ng·h/mL; Cmax ([7]; plasma): 2230 ng/mL; Cmax ([8]; plasma (from arterial blood)): 1540 ng/mL; Cmax ([9]; plasma (from portal blood)): 3220 ng/mL; bioavailability [10]: 16%
CCCC[C@H](O[C@@H](Cc1ccccc1)C(=O)N1CCC(OCOC)CC1)C(=O)N[C@@H](CC1CCCCC1)[C@@H](O)C[C@H](N)C(C)C,6.96,,,,
CCCCC(=O)N[C@@H](C[C@H](O)[C@H](CC1CCCCC1)NC(=O)[C@H](CCCC)O[C@@H](Cc1ccccc1)C(=O)N1CCC(OCOC)CC1)C(C)C,,7.28,,,
CCCC[C@H](N[C@@H](Cc1ccccc1)C(=O)N1CCC(OCOC)CC1)C(=O)N[C@@H](CC1CCCCC1)[C@@H](O)C[C@H](C(=O)NCCCN1CCOCC1)C(C)C,,,4.5,3.9,Average AUC (Mustela putorius furo [5]): 7700 ng·h/mL; Average AUC (Mustela putorius furo [6]): 682 ng·h/mL; Cmax ([7]; in vivo): 1310 ng/mL; Cmax ([8]; in vivo): 3490 ng/mL; Cmax ([9]; in vivo): 4350 ng/mL; bioavailability [10]: 34%
CC(C)[C@H](C[C@H](O)[C@H](CC1CCCCC1)NC(=O)[C@H](Cc1c[nH]cn1)NC(=O)[C@H](Cc1ccccc1)NC(=O)OC(C)(C)C)NC(=O)OCCN(C)C,8.64,7.92,,,
CCCC[C@H](O[C@@H](Cc1ccccc1)C(=O)N1CCC(OCOC)CC1)C(=O)N[C@@H](CC1CCCCC1)[C@@H](O)C[C@H](NC(=O)NCCC)C(C)C,8.62,7.80,,,
CC(C)[C@H](C[C@H](O)[C@H](CC1CCCCC1)NC(=O)[C@H](Cc1c[nH]cn1)NC(=O)[C@H](Cc1ccccc1)NC(=O)OC(C)(C)C)NS(=O)(=O)C(C)C,7.17,,,,
CCCC[C@H](N[C@@H](Cc1ccccc1)C(=O)N1CCC(OCOC)CC1)C(=O)N[C@@H](CC1CCCCC1)[C@@H](O)C[C@H](NC(=O)OCCN1CCOCC1)C(C)C,8.74,8.02,4.3,3.9,
CCCC[C@H](O[C@@H](Cc1ccccc1)C(=O)N1CCC(OCOC)CC1)C(=O)N[C@@H](CC1CCCCC1)[C@@H](O)C[C@H](C(=O)N1CCCN(C)CC1)C(C)C,7.77,7.10,,3.7,
CCCC[C@H](O[C@@H](Cc1ccccc1)C(=O)N1CCC(OCOC)CC1)C(=O)N[C@@H](CC1CCCCC1)[C@@H](O)C[C@H](NC(=O)OCc1ccccc1)C(C)C,8.66,7.08,,,
CCCC[C@H](N[C@@H](Cc1ccccc1)C(=O)N1CCC(OCOC)CC1)C(=O)N[C@@H](CC1CCCCC1)[C@@H](O)C[C@H](C(=O)NCCCN(C)C)C(C)C,8.68,8.21,2.8,2.2,
CCCC[C@H](O[C@@H](Cc1ccccc1)C(=O)N1CCC(OCOC)CC1)C(=O)N[C@@H](CC1CCCCC1)[C@@H](O)C[C@H](C(=O)NCCN(C)C)C(C)C,8.54,8.24,4.3,3.3,
CCCC[C@H](O[C@@H](Cc1ccccc1)C(=O)N1CCC(OCOC)CC1)C(=O)N[C@@H](CC1CCCCC1)[C@@H](O)C[C@H](NC(=O)OCCN1CCCC1)C(C)C,8.60,7.89,,,
CC(C)[C@H](C[C@H](O)[C@H](CC1CCCCC1)NC(=O)[C@H](Cc1cnc[nH]1)NC(=O)[C@H](Cc1ccccc1)NC(=O)OC(C)(C)C)NC(=O)OCCN1CCOCC1,8.89,8.33,,,
CCCC[C@H](O[C@@H](Cc1ccccc1)C(=O)N1CCC(OCOC)CC1)C(=O)N[C@@H](CC1CCCCC1)[C@@H](O)C[C@H](C(=O)NCCC[N+](C)(C)[O-])C(C)C,,8.30,,,
CC(C)[C@H](C[C@H](O)[C@H](CC1CCCCC1)NC(=O)[C@H](Cc1c[nH]cn1)NC(=O)[C@H](Cc1ccccc1)NC(=O)OC(C)(C)C)NC(=O)OCc1ccccc1,7.96,,,,
